Data on 9 compounds can be found in US20150133369A1, “PHARMACOKINETIC MODULATION WITH ALISPORIVIR” (priority 2012, published 2015).

Data set [1] can be described thus: clinical drug-drug interaction study: effect of alisporivir on boceprevir (CYP3A4 and P-gp substrate) pharmacokinetics. The note with it: healthy human subjects; alisporivir 600 mg BID for 7 days and 600 mg QD for one additional day; single 400 mg oral dose of boceprevir. It counts as in vivo. Here is the method:
The T1/2 of boceprevir was similar when boceprevir was administered with alisporivir.

For data set [2] the following is noted: human, in vivo, po.
The nature of data set [3]: clinical drug-drug interaction study: effect of alisporivir on telaprevir (CYP3A4 and P-gp substrate) pharmacokinetics. It counts as in vivo. The following applies: healthy human subjects; alisporivir 600 mg BID for 7 day and 600 mg QD for one additional day; single 375 mg oral dose of telaprevir. Here is the method:
The T1/2 of telaprevir was longer when telaprevir was administered with alisporivir.

For data set [4] the following is noted: alisporivir 600 mg BID for 10 days; single 40 mg oral dose of atorvastatin.
Data set [5] is described as follows: effect of alisporivir on circulating bilirubin concentrations in healthy subjects. The following applies: 40 mg valsartan before and after alisporivir 600 mg BID 7 days then QD.
A short description of data set [6]: clinical drug-drug interaction study: effect of alisporivir on valsartan (CYP2C9, OATP1B1, OATP1B3, MRP2 substrate) pharmacokinetics. The note with it: alisporivir 600 mg BID for 7 days; single oral 40 mg dose of valsartan.
Data set [7] is described as follows: clinical drug-drug interaction study: effect of alisporivir on azithromycin (CYP3A4 substrate) pharmacokinetics. It counts as in vivo, human. The following applies: single 1200 mg oral dose of alisporivir; single oral 1000 mg dose of azithromycin.
The nature of data set [8]: clinical drug-drug interaction study: effect of alisporivir on digoxin (P-gp substrate) pharmacokinetics. It counts as in vivo, human. The note with it: alisporivir 600 mg BID for 7 days; single oral 0.25 mg dose of digoxin. Here is the method:
Digoxin 0.25 mg is generally initiated in patients under the age of 70 with good renal function. When digoxin is taken with food high in bran fiber, the amount absorbed from an oral dose may be reduced.

A short description of data set [9]: clinical drug-drug interaction study: effect of alisporivir on buspirone (sensitive CYP3A4 substrate) pharmacokinetics. The note with it: alisporivir 600 mg BID for 7 days; single oral 5 mg dose of buspirone.
The conditions of data set [10]: human, in vivo, po. The source holds these as a separate data set.

Like-named read-outs stand apart in the source and are kept apart here.

In the case of `CC(C)(C)NC(=O)N[C@H](C(=O)N1C[C@H]2[C@@H]([C@H]1C(=O)NC(CC1CCC1)C(=O)C(N)=O)C2(C)C)C(C)(C)C` (stereo partly shown) [boceprevir], in data set [1], the “T1/2 when administered with alisporivir” value is listed as “similar” and the “increase in the Cmax” value was roughly 47%. With `CC(C)n1c(/C=C/C(O)CC(O)CC(=O)O)c(-c2ccc(F)cc2)c2ccccc21` (stereo not shown) [fluvastatin], the “T1/2 when administered with alisporivir” value in data set [2] is given as “longer”. Turning to `CCC[C@H](NC(=O)[C@@H]1[C@H]2CCC[C@H]2CN1C(=O)[C@@H](NC(=O)[C@@H](NC(=O)c1cnccn1)C1CCCCC1)C(C)(C)C)C(=O)C(=O)NC1CC1` [telaprevir], in data set [3], the “T1/2 when administered with alisporivir” value was “longer” and the “increase in the Cmax” value is recorded as roughly 2.4 fold. As for `CC(C)c1c(C(=O)Nc2ccccc2O)c(-c2ccccc2)c(-c2ccc(F)cc2)n1CCC(O)CC(O)CC(=O)O` (stereo not shown) [o-OH-atorvastatin], in data set [4], the “increase in exposure (AUC)” value is roughly 9 fold and the “increase in exposure (Cmax)” value is “approximately 7 fold”. In data set [5], `CCCCC(=O)N(Cc1ccc(-c2ccccc2-c2nnn[nH]2)cc1)[C@H](C(=O)O)C(C)C` [valsartan] registered a Valsartan exposure increased of roughly 6 fold. In data set [6], the “increase in Cmax” value is recorded as “approximately 2.3 fold” and the “increase in the AUC” value is given as roughly 6 fold. On to `CC[C@H]1OC(=O)[C@H](C)[C@@H](O[C@H]2C[C@@](C)(OC)[C@@H](O)[C@H](C)O2)[C@H](C)[C@@H](O[C@@H]2O[C@H](C)C[C@H](N(C)C)[C@H]2O)[C@](C)(O)C[C@@H](C)CN(C)[C@H](C)[C@@H](O)[C@]1(C)O` [azithromycin], for which the “increase in the AUC” value in data set [7] is given as 32-39%. With `C[C@H]1O[C@@H](O[C@H]2[C@@H](O)C[C@H](O[C@H]3[C@@H](O)C[C@H](O[C@H]4CC[C@@]5(C)[C@H](CC[C@@H]6[C@@H]5C[C@@H](O)[C@]5(C)[C@@H](C7=CC(=O)OC7)CC[C@]65O)C4)O[C@@H]3C)O[C@@H]2C)C[C@H](O)[C@@H]1O` [digoxin], in [8], the “effect of alisporivir on renal clearance” value is “did not affect”, the “increase in Cmax” value is listed as roughly 1.8 fold and the “increase in the AUC” value is roughly 2.6 fold. In the case of `c1cnc(N2CCNCC2)nc1` [1-PP], the “AUC increase (metabolite of buspirone)” value in [9] is listed as 12-15%.

Consider `CN(C)CCC[C@@]1(c2ccc(F)cc2)OCc2cc(C#N)ccc21` [escitalopram], for which the “T1/2 when administered with alisporivir” value in data set [10] is given as “similar”.
